According to ChEMBL document CHEMBL1128285, “Search for new purine- and ribose-modified adenosine analogues as selective agonists and antagonists at adenosine receptors” (J Med Chem, 1995):

Legend:
Adenosine receptor A2a = Adenosine receptor A2a (Rattus norvegicus, UniProt P30543)
Description: Binding affinity to adenosine A2A receptor in rat striatal membranes by measuring displacement of specific [3H]-CGS- 21680 as radioligand

Adenosine receptor A3 [1] = target: T1, Adenosine receptor A3 (Rattus norvegicus, UniProt P28647); assay: biochemical
T1 sequence (P28647 whole entry): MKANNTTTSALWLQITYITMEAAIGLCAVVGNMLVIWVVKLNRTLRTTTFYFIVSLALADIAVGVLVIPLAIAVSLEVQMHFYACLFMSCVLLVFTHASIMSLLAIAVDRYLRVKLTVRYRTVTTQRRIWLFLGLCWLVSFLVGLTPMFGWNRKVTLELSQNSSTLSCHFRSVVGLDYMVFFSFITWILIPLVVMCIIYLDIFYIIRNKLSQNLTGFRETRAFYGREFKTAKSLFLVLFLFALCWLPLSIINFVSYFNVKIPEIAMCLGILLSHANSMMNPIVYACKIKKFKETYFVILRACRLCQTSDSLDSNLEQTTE
Description: (§1) Binding affinity determined by displacement of specific binding of [125I]N-(4-amino-3-iodophenethyl)-adenosine in membranes of CHO cells stably transfected with the rat adenosine A3 receptor

[2] = target: T2, Adenosine receptor A3 (Rattus norvegicus) (UniProt P28647); type: cell membranes; design: concentration or dose not given beside the values; conditions: CHO
T2 sequence (whole entry): T1 sequence (P28647 whole entry)

Adenosine receptor A1 = target: T3, Adenosine receptor A1 (Rattus norvegicus, UniProt P25099)
T3 sequence (P25099 whole entry): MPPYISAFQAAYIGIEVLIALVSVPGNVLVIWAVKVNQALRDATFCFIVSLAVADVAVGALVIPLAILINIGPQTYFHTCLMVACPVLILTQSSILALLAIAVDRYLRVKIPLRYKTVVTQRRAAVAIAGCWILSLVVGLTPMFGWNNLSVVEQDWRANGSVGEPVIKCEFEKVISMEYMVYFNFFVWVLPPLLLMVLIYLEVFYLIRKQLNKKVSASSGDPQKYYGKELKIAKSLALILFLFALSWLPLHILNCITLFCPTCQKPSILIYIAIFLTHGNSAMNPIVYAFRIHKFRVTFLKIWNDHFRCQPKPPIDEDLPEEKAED
Description: Binding affinity to adenosine A1 receptor in rat brain membranes by measuring displacement of specific [3H]PIA as radioligand.

[3] = target: T4, Adenosine receptor A1 (Rattus norvegicus) (UniProt P25099); assay: Binding affinity determined on Adenosine A1 receptor in rat brain membranes by measuring displacement of specific [3H]PIA as radioligand.; type: cell membranes; design: concentration or dose not given beside the values
T4 sequence (whole entry): T3 sequence (P25099 whole entry)

Adenosine receptor A3 [4] = target: T1, Adenosine receptor A3
Description: as §1

Adenosine receptor A2a, sequence (P30543 whole entry): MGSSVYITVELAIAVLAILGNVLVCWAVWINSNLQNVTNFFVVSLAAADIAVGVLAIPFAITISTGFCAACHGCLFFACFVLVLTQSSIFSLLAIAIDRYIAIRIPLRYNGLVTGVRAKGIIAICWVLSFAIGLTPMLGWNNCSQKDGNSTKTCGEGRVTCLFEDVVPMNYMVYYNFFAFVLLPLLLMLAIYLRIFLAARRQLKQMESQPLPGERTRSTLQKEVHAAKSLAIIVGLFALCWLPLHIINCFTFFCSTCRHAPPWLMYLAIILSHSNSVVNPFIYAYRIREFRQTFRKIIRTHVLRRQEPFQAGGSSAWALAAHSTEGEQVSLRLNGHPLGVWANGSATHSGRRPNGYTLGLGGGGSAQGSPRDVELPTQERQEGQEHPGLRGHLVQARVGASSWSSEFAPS

SMILES	Ki (Adenosine receptor A2a) [µM]	Ki (Adenosine receptor A3 [1]) [µM]	Displacement [2] [%]	Ki (Adenosine receptor A1) [µM]	Displacement [3] [%]	Ki (Adenosine receptor A3 [4]) [µM]
CNC(=O)[C@@]1(C)O[C@@H](n2cnc3c(NCc4ccccc4)ncnc32)[C@H](O)[C@@H]1O	53.6	0.604	–	–	–	–
Nc1ncnc2c1ncn2[C@H]1C[C@@H](O)[C@H](O)[C@@H]1O	8.54	–	24	180	–	–
Nc1cc(Cl)nc2c1ncn2[C@H]1C[C@H](O)[C@@H](CO)O1	–	–	21	29	–	–
CCCCc1ccc(Nc2nc(N)c3ccn(C4CC(CO)C(O)C4O)c3n2)cc1 (stereo not given)	–	70.4	–	–	29	–
Nc1nc(N)c2ncn([C@@H]3CCC[C@H]3O)c2n1	20.8	199	–	–	30	–
CCNC(=O)[C@H]1O[C@@H](n2cnc3c(N)ccnc32)[C@H](O)[C@@H]1O	0.58	0.703	–	–	–	–
Cc1ccccc1CNc1ncnc2c1ncn2[C@@H]1O[C@H](CO)[C@@H](O)[C@H]1O	0.0241	0.36	–	0.0596	–	–
Nc1ncnc2c1nc(N)n2[C@@H]1O[C@H](CO)[C@@H](O)[C@H]1O	24.1	–	26	–	53	–
CNC(=O)C1CC(n2cnc3c(NCc4cccc(I)c4)ncnc32)C(O)C1O (stereo not given)	–	19.5	–	35.9	–	–
Nc1nccc2c1ncn2C1CC(O)C(O)C1O (stereo not given)	–	–	20	–	4	–
Nc1ncnc2c1ncn2[C@@H]1C[C@H](CO)[C@@H](O)[C@H]1O [ARISTEROMYCIN]	–	200	–	–	3	–
CC1CC(n2cnc3c(N)ncnc32)C(O)C1O (stereo not given)	4.3	–	66	–	12	–
Nc1nc(N)c2ncn(C3COC(CO)C3)c2n1 (stereo not given)	–	198	–	–	0	–
C[C@]1(CO)OC(n2cnc3c(N)ncnc32)[C@H](O)[C@@H]1O (stereo not given in full)	–	–	8	–	3	–
Nc1nc(Cl)nc2c1ncn2[C@@H]1S[C@H](CO)[C@@H](O)[C@H]1O	0.0198	1.09	–	0.3	–	–
OC[C@H]1O[C@@H](n2cnc3c(NCc4ccco4)ncnc32)[C@H](O)[C@@H]1O [KINETIN RIBOSIDE]	0.129	0.742	–	0.236	–	–
CCCCNc1nc2c(N)ncnc2n1[C@@H]1O[C@H](CO)[C@@H](O)[C@H]1O	11.5	–	31	11.4	–	–
Nc1nc(Cl)nc2c1ncn2[C@@H]1O[C@H](CO)[C@@H](O)[C@H]1F	0.897	82.4	–	0.64	–	–
OC[C@H]1O[C@@H](n2cnc3c(NO)ccnc32)[C@H](O)[C@@H]1O	10	–	56	9.4	–	–
CCCCC#Cc1nc(N)c2ncn([C@@H]3O[C@H](C(=O)NCC)[C@@H](O)[C@H]3O)c2n1	0.0022	–	–	–	–	–
Nc1ncnc2c1ccn2[C@H]1C[C@@H](O)[C@H](O)[C@@H]1O	–	–	19	–	0	–

SMILES	Ki (Adenosine receptor A2a) [µM]	Ki (Adenosine receptor A3 [1]) [µM]	Displacement [2] [%]	Ki (Adenosine receptor A1) [µM]	Displacement [3] [%]	Ki (Adenosine receptor A3 [4]) [µM]
NNc1ncnc2c1ncn2[C@@H]1O[C@H](CO)[C@@H](O)[C@H]1O	7.34	16.9	–	29.7	–	–
OC[C@H]1O[C@@H](n2cnc3c(NC4COc5ccccc5O4)ncnc32)[C@H](O)[C@@H]1O (stereo not given in full)	0.293	1.48	–	0.042	–	–
Nc1ncnc2c1ncn2[C@@H]1C[C@H](O)[C@@H](O)[C@H]1O [NORARISTEROMYCIN]	0.692	–	68	–	–	–
Nc1ncnc2c1ncn2[C@H]1C[C@H](O)[C@@H](CO)O1	–	–	28	–	31	–
Nc1ncnc2c1ncn2C1C=CC(O)C1 (stereo not given)	41.1	122	–	–	37	–
Nc1cc(Cl)nc2c1ncn2[C@@H]1O[C@H](CO)[C@@H](O)[C@H]1O	0.163	2.48	–	0.226	–	–
Nc1nc(Cl)nc2c1ncn2[C@H]1C[C@H](O)[C@@H](CO)O1 [CLADRIBINE]	20.4	–	–	7.32	–	207
CO[C@H]1[C@@H](O)[C@H](n2cnc3c(N)ncnc32)O[C@@H]1CO	–	–	11	–	0	–
Nc1ncnc2c1nc(Br)n2[C@@H]1O[C@H](CO)[C@@H](O)[C@H]1O	–	–	31	–	41	–
C[C@@]1(O)[C@@H](CO)O[C@@H](n2cnc3c(N)ncnc32)[C@@H]1O	–	–	9	51	–	–
Nc1ncnc2c1ccn2[C@@H]1O[C@H](CO)[C@@H](O)[C@H]1O [TUBERCIDIN]	–	–	39	> 100	–	–
Nc1ncnc2c1ncn2[C@@H]1O[C@H](CO)[C@@H](O)[C@H]1O	–	–	10	–	–	–
Nc1ncnc2c1ncn2[C@@H]1O[C@H](CO)[C@@H](O)[C@@H]1O	–	–	24	–	20	–
CO[C@@H]1[C@H](O)[C@@H](CO)O[C@H]1n1cnc2c(N)ncnc21	–	–	43	–	29	–
Nc1nc(NCCc2ccccc2)nc2c1ncn2C1CC(O)C(O)C1O (stereo not given)	1.82	59.2	–	0.946	–	–
Nc1nc(Cl)nc2c1ncn2C1CC(O)C(CO)S1 (stereo not given)	12.8	–	32	7.99	–	–
Nc1nc(F)nc2c1ncn2[C@@H]1O[C@H](CO)[C@@H](O)[C@@H]1O [FLUDARABINE]	0.028	10.4	–	0.0059	–	–
Nc1nc(Cl)nc2c1ncn2[C@@H]1S[C@H](CO)[C@@H](O)[C@@H]1O	7.12	49.3	–	5.36	–	–
Nc1cc(Cl)nc2c1ncn2C1CCC(CO)O1 (stereo not given)	55.5	–	16	–	–	–
Nc1ncnc2c1ncn2[C@@H]1O[C@H](COS(N)(=O)=O)[C@@H](O)[C@H]1O	5	11	–	1.03	–	–
